Read-outs that look alike come from different tables or passages of the source.
Columns and labels:
[1] = tested on: isolated rat liver mitochondria; experiment: Oxygen consumption, Clark-type oxygen electrode; format: biochemical; conditions: for I-ADP, % of control (O2 consumption rate): glutamate/malate driven state 3 respiration; for I-ADP, % of control (O2 consumption rate) / I-sub, % of control (O2 consumption rate) / II-ADP, % of control (O2 consumption rate) / II-sub, % of control (O2 consumption rate): isolated rat liver mitochondria; for I-sub, % of control (O2 consumption rate): glutamate/malate driven state 4 respiration; for II-ADP, % of control (O2 consumption rate): succinate-driven state 3 respiration; for II-sub, % of control (O2 consumption rate): succinate-driven state 4 respiration; for Potential Mechanism: mitochondrial respiration in isolated rat liver mitochondria, Clark type oxygen electrode, over tested concentrations
HepG2 cells [2] = conditions: cited from earlier work; for IC50: read-out: MMP assays IC50 (µM) qHTS-HepG2
HepG2 cells [3] = experiment: cells; conditions: Homo sapiens; for IC50: HepG2, read-out: MMP assays IC50 (µM) HepG2; for Emax: HepG2, read-out: MMP assays efficacy (%) HepG2
[4] = tested on: Caenorhabditis elegans strain PE255; experiment: In vivo C. elegans ATP status assay; conditions: for minimal effective concentration: Caenorhabditis elegans, read-out: LEC LUM: lowest effect concentration for luminescence, a measure of nematode ATP content
rat primary hepatocytes = experiment: MMP assay in rat primary hepatocytes; conditions: for IC50: Rattus norvegicus, Hepatocyte, read-out: MMP assays IC50 (µM) Rat Hepatocytes; for MMP assays efficacy (%) Rat Hepatocytes: mean ± SD of three experiments
[5] = tested on: Caenorhabditis elegans (Bristol N2); experiment: C. elegans larval development and growth assay; conditions: for minimal effective concentration: Caenorhabditis elegans, read-out: LEC EXT: lowest effect concentration for extinction, a measure of nematode size

SMILES | I-ADP, % of control (O2 consumption rate) ([1]; 20 µM) | I-sub, % of control (O2 consumption rate) ([1]; 20 µM) | LUM: mean difference in luminescence (ATP content) relative to plate controls ([4]; 0.5 µM) | LUM: mean difference in luminescence (ATP content) relative to plate controls ([4]; 1 µM) | LUM: mean difference in luminescence (ATP content) relative to plate controls ([4]; 5 µM) | LUM: mean difference in luminescence (ATP content) relative to plate controls ([4]; 10 µM) | LUM: mean difference in luminescence (ATP content) relative to plate controls ([4]; 25 µM) | LUM: mean difference in luminescence (ATP content) relative to plate controls ([4]; 50 µM) | LUM: mean difference in luminescence (ATP content) relative to plate controls ([4]; 75 µM) | LUM: mean difference in luminescence (ATP content) relative to plate controls ([4]; 100 µM) | minimal effective concentration [4] [µM] | EXT: mean difference in nematode size relative to plate controls ([5]; 0.5 µM) | EXT: mean difference in nematode size relative to plate controls ([5]; 1 µM) | EXT: mean difference in nematode size relative to plate controls ([5]; 5 µM) | EXT: mean difference in nematode size relative to plate controls ([5]; 10 µM) | EXT: mean difference in nematode size relative to plate controls ([5]; 25 µM) | EXT: mean difference in nematode size relative to plate controls ([5]; 50 µM) | EXT: mean difference in nematode size relative to plate controls ([5]; 75 µM) | EXT: mean difference in nematode size relative to plate controls ([5]; 100 µM) | minimal effective concentration [5] [µM] | also measured
Cc1cc(Cc2cc(C)cc(C(C)(C)C)c2O)c(O)c(C(C)(C)C)c1 | 103 (50.8) % of control | 116 (18.6) % of control | -0.1638 | -0.2926 | -0.4173 | -0.05227 | 0.3804 | 0.9583 | 0.4391 | 0.9663 | 50 | 0.1192 | 0.1294 | 0.8511 | 1.077 | 1.41 | 2.096 | 2.103 | 2.175 | 5 | II-ADP, % of control (O2 consumption rate) ([1]; 20 µM): 101 (78.4) % of control; II-sub, % of control (O2 consumption rate) ([1]; 20 µM): 103 (31.4) % of control; I-ADP, % of control (O2 consumption rate) ([1]; 100 µM): 100 (28.6) % of control; I-sub, % of control (O2 consumption rate) ([1]; 100 µM): 244 (29.2) % of control; II-ADP, % of control (O2 consumption rate) ([1]; 100 µM): 91 (33.1) % of control; II-sub, % of control (O2 consumption rate) ([1]; 100 µM): 184 (27.2) % of control; Potential Mechanism [1]: Uncoupler; MMP assays efficacy (%) qHTS-HepG2 (HepG2 cells [2]): -96±2%; IC50 (HepG2 cells [2]): 1.35 ± 0.26 µM; IC50 (HepG2 cells [3]): 2 µM; Emax (HepG2 cells [3]): 97%; IC50 (rat primary hepatocytes): 3.71 ± 0.47 µM; MMP assays efficacy (%) Rat Hepatocytes (rat primary hepatocytes): -125±63%
CCc1cc(Cc2cc(CC)cc(C(C)(C)C)c2O)c(O)c(C(C)(C)C)c1 | 96 (47.4) % of control | 105 (16.9) % of control | -0.0103 | -0.09559 | -0.6519 | -0.6136 | -0.3378 | -0.154 | 0.1094 | 0.04601 | – | 0.1174 | 0.117 | 0.5074 | 0.7525 | 0.8303 | 1.425 | 1.246 | 1.387 | 5 | II-ADP, % of control (O2 consumption rate) ([1]; 20 µM): 100 (77.8) % of control; II-sub, % of control (O2 consumption rate) ([1]; 20 µM): 97 (29.7) % of control; I-ADP, % of control (O2 consumption rate) ([1]; 100 µM): 121 (34.8) % of control; I-sub, % of control (O2 consumption rate) ([1]; 100 µM): 175 (20.9) % of control; II-ADP, % of control (O2 consumption rate) ([1]; 100 µM): 98 (35.6) % of control; II-sub, % of control (O2 consumption rate) ([1]; 100 µM): 134 (19.8) % of control; Potential Mechanism [1]: Uncoupler; MMP assays efficacy (%) qHTS-HepG2 (HepG2 cells [2]): -111±18%; IC50 (HepG2 cells [2]): 1.22 ± 0.73 µM; IC50 (HepG2 cells [3]): 2 µM; Emax (HepG2 cells [3]): 90%; IC50 (rat primary hepatocytes): 5.01 ± 4.35 µM; MMP assays efficacy (%) Rat Hepatocytes (rat primary hepatocytes): -78±36%
CC(C)[C@@H]1NC(=O)[C@H](C)OC(=O)[C@@H](C(C)C)NC(=O)[C@@H](C(C)C)OC(=O)[C@H](C(C)C)NC(=O)[C@H](C)OC(=O)[C@@H](C(C)C)NC(=O)[C@@H](C(C)C)OC(=O)[C@H](C(C)C)NC(=O)[C@H](C)OC(=O)[C@@H](C(C)C)NC(=O)[C@@H](C(C)C)OC1=O [Valinomycin] | – | – | -0.05222 | -0.06335 | 0.1958 | 0.3328 | 1.023 | 0.6115 | 0.5181 | 0.5717 | 25 | 0.09961 | 0.01293 | -0.07954 | -0.01187 | 0.0497 | 0.3415 | 0.411 | 0.3807 | 50 | –
O=C1CCC(N2C(=O)c3ccccc3C2=O)C(=O)N1 (centres unmarked) [Thalidomide] | – | – | 0.03143 | 0.01645 | 0.01511 | 0.04635 | 0.07311 | -0.2127 | 0.4289 | 0.7958 | 75 | 0.09319 | -0.00358 | 0.07925 | 0.0474 | 0.0694 | 0.4966 | 0.9805 | 0.9456 | 50 | –

From PMC6112376, “Comprehensive Analyses and Prioritization of Tox21 10K Chemicals Affecting Mitochondrial Function by in-Depth Mechanistic Studies” (Environmental Health Perspectives, 2018)
